# Measurements published in paper PMC5354814, “In silico and in vitro drug screening identifies new therapeutic approaches for Ewing sarcoma” (Oncotarget, 2016).
# Read-outs that look alike come from different tables or passages of the source.
# Columns and labels:
# [1] = Other animal xenograft models, oral auranofin; type: in vivo; settings: unpublished data
# Excerpt: As previously reported, Ridaura® was first developed for the management of rheumatoid arthritis as a disease-modifying anti-rheumatic drug (DMARD). However, the adverse effects and the concerns about the long-term consequences of the immunosuppression induced by Ridaura® led to the decline in its use. […] Therefore, we sought to determine if altering the route of delivery could replicate the dramatic in vitro anticancer activity and improve its efficacy in vivo. Previous studies have shown that orally delivered auranofin is rapidly metabolized and intact auranofin has never been detected in the blood. Thus, studies of the pharmacokinetics of auranofin have involved measurement of gold concentrations. Upon oral administration, 25% of auranofin gets absorbed.
# [2] = cited from earlier work
# [3] = cited from earlier work; remark: listed apart in the source
# [4] = test system: mouse lymphoma; set-up: method as in ref 18, ref 19; settings: 313 to 700 ng/mL, in the presence of a rat liver microsomal preparation; cited from earlier work
# [5] = test system: Salmonella; set-up: method as in ref 18, ref 19; settings: cited from earlier work
# [6] = test system: BALB/3T3 cell; set-up: method as in ref 18, ref 19; settings: cited from earlier work
# [7] = set-up: method as in ref 18, ref 19; settings: cited from earlier work
# [8] = cited from earlier work; for grossly malformed fetuses: rabbits, days 6-18 of pregnancy
# [9] = set-up: method as in ref 19 (a number printed in a supplementary file, which may have a reference list of its own: not looked up in the article's list); settings: dog, cited from earlier work
# [10] = test system: rate leukocytes; set-up: method as in ref 19 (a number printed in a supplementary file, which may have a reference list of its own: not looked up in the article's list); settings: 10^-3 to 10^-6M; cited from earlier work
# [11] = set-up: method as in ref 19 (a number printed in a supplementary file, which may have a reference list of its own: not looked up in the article's list); settings: 5 and 10 µg gold/kg for 2 weeks; cited from earlier work
# [12] = set-up: method as in ref 19 (a number printed in a supplementary file, which may have a reference list of its own: not looked up in the article's list); settings: intravenous, 20 mg auranofin/kg; cited from earlier work
# [13] = test system: Rhesus monkey lung; set-up: method as in ref 19 (a number printed in a supplementary file, which may have a reference list of its own: not looked up in the article's list); settings: 1.5 x 10^-4M; cited from earlier work
# [14] = test system: Rhesus monkey skin; set-up: method as in ref 19 (a number printed in a supplementary file, which may have a reference list of its own: not looked up in the article's list); settings: 1.5 x 10^-4M; cited from earlier work
# [15] = test system: rat lung; set-up: method as in ref 19 (a number printed in a supplementary file, which may have a reference list of its own: not looked up in the article's list); settings: 1.5 x 10^-4M; cited from earlier work
# [16] = set-up: method as in ref 19 (a number printed in a supplementary file, which may have a reference list of its own: not looked up in the article's list); settings: rats, 2 - 40 mg auranofin/kg p.o.; cited from earlier work
# [17] = set-up: method as in ref 19 (a number printed in a supplementary file, which may have a reference list of its own: not looked up in the article's list); settings: rats, up to 15 mg gold/kg p.o.; cited from earlier work
# [18] = set-up: method as in ref 19 (a number printed in a supplementary file, which may have a reference list of its own: not looked up in the article's list); settings: rats, cited from earlier work
# [19] = set-up: method as in ref 19 (a number printed in a supplementary file, which may have a reference list of its own: not looked up in the article's list); settings: dogs, cited from earlier work
# [20] = after 6 months of auranofin 3 mg BID
structure (smiles),measurement,setting,value
"CC(=O)OC[C@H]1O[C@@H]([S-])[C@H](OC(C)=O)[C@@H](OC(C)=O)[C@@H]1OC(C)=O.CCP(CC)CC.[Au+] [Auranofin, auranofin]",efficacy when given orally,[1],not effective
same,mean steady state blood-gold concentration,"[2]; 6 mg auranofin/day, n=63 patients",0.68 ± 0.45 µg/mL
same,labelled gold excreted by day 10,[2]; [20],75%
same,labelled gold excreted in feces by day 10,[2]; [20],70%
same,labelled gold excreted in the urine by day 10,[2]; [20],5%
same,mean plasma half-life,[2]; [20],25.5 days
same,mean total body terminal half-life,[2]; [20],80.8 days
same,absorbed gold in erythrocytes / red cells,[2],approximately 40%
same,gold in blood associated with red cells,[2],~40%
same,gold in blood associated with serum proteins,[2],60%
same,gold in plasma / associated with serum proteins,[2],60%
same,labelled gold excreted six months after single dose,[2],approximately 99.6%
same,labelled gold retained in the body six months after single dose,[2],0.4%
same,time to steady state blood gold levels,[2]; clinical studies,about 3 months
same,time to steady state blood-gold concentrations,[2]; clinical studies,about three m onths
same,fraction of gold absorbed after oral administration,"[2]; human, oral",~25%
same,mean terminal body half-life,[2]; n = 5,80 days
same,mean terminal plasma half-life of auranofin gold at steady state,[2]; n = 5,26 days
same,labelled gold excreted by day 10,[2]; single 6 mg oral dose,77%
same,labelled gold excreted in the feces by day 10,[2]; single 6 mg oral dose,73%
same,labelled gold excreted in the urine by day 10,[2]; single 6 mg oral dose,4%
same,mean plasma terminal half-life,[2]; single 6 mg oral dose,17 days
same,mean total body terminal half-life,[2]; single 6 mg oral dose,58 days
same,absorbed gold excreted in urine,[2]; single dose,About 60%
same,administered dose excreted in urine,[2]; single dose,15%
same,LD50,"[3]; Rat CD, F, PO",330 mg/kg
same,acute oral LD50,[3]; adult rats,265 mg/kg
same,minimum lethal dose,[3]; rats,30 mg/kg
same,lethality (LD50) in rats when given concomitantly with other drugs,"[3]; warfarin at usual human daily dose, clonidine, propoxyphene at five times, others at ten or twenty times",potentiated
same,mutation frequencies,[4],induced increases in the mutation frequencies
same,mutation effects,[5],no m utation effects
same,mutation effects,[6],no m utation effects
same,mutation effects,[7],no m utation effects
same,teratogenicity in rabbits,"[8]; oral 0.5, 3 and 6 mg/kg/day",teratogenic potential
same,grossly malformed fetuses,[8]; 0.5 mg/kg/day (low),1.9%
same,grossly malformed fetuses,[8]; 3 mg/kg/day (middle),4.7%
same,grossly malformed fetuses,[8]; 6 mg/kg/day (high),15.5%
same,absorption after oral dosing,[9],26%
same,blood gold in plasma proteins,[9],17%
same,blood gold in red blood cells,[9],82%
same,urinary excretion,[9],16%
same,elimination in feces,[9]; within 21 days,83%
same,particle-stimulated lysosomal enzyme release,[10],significantly reduced
same,hemagglutinating IgG antibodies to SRBC and antibodies to mouse fibroblasts,[11],suppressed
same,48-hour passive cutaneous anaphylaxis,[12],inhibition
same,anti-human IgE-induced release of histamine and SRS-A,[13],inhibition
same,histamine release,[14],inhibition
same,ovalbumin antigen-induced release of histamine,[15],inhibition
same,antidiuretic effect,[16],slight antidiuretic effect
same,induction of liver enzyme activity,[17],failed to induce liver enzyme activity
same,"chronic toxicity, histological examination","[18]; oral 3.6, 12 and 23 mg/kg/day, 12 months",dose-related karyomegaly and cytomegaly of the renal tubular epithelial
same,subacute toxicity findings,"[18]; oral 3.6, 12 and 36 mg/kg/day, 3 months","Dose-related increase in salivation, decrease in hemoglobin"
same,adenomas of the renal cortical tubular epithelium,"[18]; oral, 12 months, 23 mg/kg/day",occurred in 2 females in the high dose
same,"chronic toxicity, anemia in middle and high dose groups","[19]; oral 0.6, 1.2 and 2.4-6.0 mg/kg/day, 12 months",intravascular hemolytic anemia
same,subacute toxicity findings,"[19]; oral 1.8, 3.6-7.2 and 6.9-18.0 mg/kg/day, 3 months","Dose-related emesis, diarrhea, decreased food consumption"
